12 compounds from PubChem BioAssay AID328 (DTP/NCI, 2004) can be followed below.

Toxic doses and inconclusive results are not listed.

This experiment has as its system BDF1 mice, P388 leukemia ip, median survival T/C. The experiment in a line: NCI In Vivo Anticancer Drug Screen. Data for tumor model P388 Leukemia (intraperitoneal) in B6D2F1 (BDF1) mice. The note with it: endpoint: median survival time, higher = longer survival. The method in brief: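 Reported as T/C, where T is the survival measurement in dosed animals and C the same measurement in vehicle controls.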

Setting [1] is: dose: 100.0 mg/kg/injection, schedule: Q04DX003 (ip), vehicle: Klucel (hydroxypropylcellulose) (HPC).
Setting [2] is: dose: 200.0 mg/kg/injection, schedule: Q04DX003 (ip), vehicle: Klucel (hydroxypropylcellulose) (HPC).
The mark [3] stands for this setting: dose: 50.0 mg/kg/injection, schedule: Q01DX009 (ip), vehicle: saline with Tween-80.
Where [4] appears, read: dose: 100.0 mg/kg/injection, schedule: Q04DX003 (ip), vehicle: saline with Tween-80.

Take `COC1=C(NCc2ccccc2)C(=O)C(OC)=C(NCc2ccccc2)C1=O`: the T/C is 90 % of control (dose: 100.0 mg/kg/injection, schedule: Q01DX009 (ip), vehicle: Klucel (hydroxypropylcellulose) (HPC)); 95 % of control under setting [1]; 100 % of control (dose: 200.0 mg/kg/injection, schedule: Q01DX009 (ip), vehicle: Klucel (hydroxypropylcellulose) (HPC)); 86 % of control under setting [2]; 100 % of control (dose: 400.0 mg/kg/injection, schedule: Q01DX009 (ip), vehicle: Klucel (hydroxypropylcellulose) (HPC)); 95 % of control (dose: 400.0 mg/kg/injection, schedule: Q04DX003 (ip), vehicle: Klucel (hydroxypropylcellulose) (HPC)).
As for `Nc1nc(N)c(Cl)c(Nc2cccc(Cl)c2)n1`, the T/C was 102 % of control under setting [3]; 103 % of control (dose: 100.0 mg/kg/injection, schedule: Q01DX009 (ip), vehicle: saline with Tween-80); 105 % of control (dose: 200.0 mg/kg/injection, schedule: Q01DX009 (ip), vehicle: saline with Tween-80).
`CC(=O)NC(CCC(=O)C=[N+]=N)C(=O)O` (configuration not stated): the T/C is 115 % of control (dose: 0.05 mg/kg/injection, schedule: Q01DX010 (ip), vehicle: other); 110 % of control (dose: 0.1 mg/kg/injection, schedule: Q01DX010 (ip), vehicle: other); 120 % of control (dose: 0.2 mg/kg/injection, schedule: Q01DX010 (ip), vehicle: other); 154 % of control (dose: 0.6 mg/kg/injection, schedule: Q01DX010 (ip), vehicle: other); 168 % of control (dose: 0.8 mg/kg/injection, schedule: Q01DX010 (ip), vehicle: other); 100 % of control (dose: 1.0 mg/kg/injection, schedule: Q01DX010 (ip), vehicle: other).
Consider `BrCC1CCCO1` (configuration not stated), for which the T/C (dose: 25.0 mg/kg/injection, schedule: Q01DX009 (ip), vehicle: saline with Tween-80) is 101 % of control and the T/C under setting [3] was 110 % of control.
As for `CC(C)=CCC/C(C)=C/CN1C(=O)CC(C)=C(C)C1=O`, the T/C reads like this: under setting [4], 100 % of control; (dose: 200.0 mg/kg/injection, schedule: Q04DX003 (ip), vehicle: saline with Tween-80) 100 % of control; (dose: 400.0 mg/kg/injection, schedule: Q04DX003 (ip), vehicle: saline with Tween-80) 104 % of control.
In the case of `CN(C)C(=S)N=Nc1c(O)[nH]c2ccccc12`, the T/C reads like this: (dose: 1.56 mg/kg/injection, schedule: Q01DX009 (ip), vehicle: saline with Tween-80) 109 % of control; (dose: 3.13 mg/kg/injection, schedule: Q01DX009 (ip), vehicle: saline with Tween-80) 100 % of control; (dose: 6.25 mg/kg/injection, schedule: Q01DX009 (ip), vehicle: saline with Tween-80) 100 % of control; (dose: 12.5 mg/kg/injection, schedule: Q01DX009 (ip), vehicle: saline with Tween-80) 92 % of control; (dose: 25.0 mg/kg/injection, schedule: Q04DX003 (ip), vehicle: saline with Tween-80) 105 % of control; (dose: 50.0 mg/kg/injection, schedule: Q04DX003 (ip), vehicle: saline with Tween-80) 100 % of control. Besides, the T/C (dose: 100.0 mg/kg/injection, schedule: Q04DX003 (ip), vehicle: saline sonified) is 90 % of control; the T/C under setting [4] was 100 % of control; the T/C (dose: 400.0 mg/kg/injection, schedule: Q04DX003 (ip), vehicle: saline sonified) was 90 % of control.
As for `CC(N)c1ccccc1` (configuration not stated) (tested in a mixture with another compound), the T/C reads like this: (dose: 50.0 mg/kg/injection, schedule: Q01DX009 (ip), vehicle: saline) 96 % of control; (dose: 100.0 mg/kg/injection, schedule: Q01DX009 (ip), vehicle: saline) 104 % of control; (dose: 200.0 mg/kg/injection, schedule: Q01DX009 (ip), vehicle: saline) 95 % of control.
With `CSc1cccc(NC(=O)Oc2ccc([N+](=O)[O-])cc2Cl)c1`, the T/C runs as follows: (dose: 12.5 mg/kg/injection, schedule: Q01DX009 (ip), vehicle: DMSO) 93 % of control; (dose: 50.0 mg/kg/injection, schedule: Q01DX009 (ip), vehicle: DMSO) 89 % of control.
For the compound `CSC(c1ccccc1)=[N+]1CCOCC1`, the T/C reads like this: (dose: 50.0 mg/kg/injection, schedule: Q01DX009 (ip), vehicle: other) 100 % of control; (dose: 50.0 mg/kg/injection, schedule: Q04DX003 (ip), vehicle: Klucel (hydroxypropylcellulose) (HPC)) 100 % of control; (dose: 100.0 mg/kg/injection, schedule: Q01DX009 (ip), vehicle: other) 118 % of control; under setting [1], 100 % of control; (dose: 200.0 mg/kg/injection, schedule: Q01DX009 (ip), vehicle: other) 113 % of control; under setting [2], 90 % of control.
As to `O=C1OC(=O)C2C3CCC(O3)C12` (configuration not stated), the T/C reads like this: (dose: 0.39 mg/kg/injection, schedule: Q04DX003 (ip), vehicle: saline) 100 % of control; (dose: 0.65 mg/kg/injection, schedule: Q01DX001 (ip), vehicle: saline) 104 % of control; (dose: 0.78 mg/kg/injection, schedule: Q01DX009 (ip), vehicle: saline) 105 % of control; (dose: 0.78 mg/kg/injection, schedule: Q04DX003 (ip), vehicle: saline) 100 % of control; (dose: 1.31 mg/kg/injection, schedule: Q01DX001 (ip), vehicle: saline) 100 % of control; (dose: 1.56 mg/kg/injection, schedule: Q01DX009 (ip), vehicle: saline) 100 % of control. In addition, the T/C (dose: 1.56 mg/kg/injection, schedule: Q04DX003 (ip), vehicle: saline) was 100 % of control; the T/C (dose: 2.3 mg/kg/injection, schedule: Q04DX003 (ip), vehicle: saline) was 110 % of control; the T/C (dose: 2.62 mg/kg/injection, schedule: Q01DX001 (ip), vehicle: saline) was 100 % of control; the T/C (dose: 3.5 mg/kg/injection, schedule: Q04DX003 (ip), vehicle: saline) is 115 % of control; the T/C (dose: 5.2 mg/kg/injection, schedule: Q04DX003 (ip), vehicle: saline) is 100 % of control; the T/C (dose: 5.25 mg/kg/injection, schedule: Q01DX001 (ip), vehicle: Klucel (hydroxypropylcellulose) (HPC)) was 91 % of control. In addition, the T/C is 95 % of control (dose: 5.25 mg/kg/injection, schedule: Q01DX001 (ip), vehicle: saline); 100 % of control (dose: 7.2 mg/kg/injection, schedule: Q04DX003 (ip), vehicle: saline); 87 % of control (dose: 21.0 mg/kg/injection, schedule: Q01DX001 (ip), vehicle: Klucel (hydroxypropylcellulose) (HPC)).
As to `O=C1C(c2ccccc2)=C(c2ccccc2)C(c2ccccc2)=C1c1ccccc1`, the T/C (dose: 0.78 mg/kg/injection, schedule: Q04DX003 (ip), vehicle: water) is 88 % of control; the T/C (dose: 1.56 mg/kg/injection, schedule: Q01DX009 (ip), vehicle: water) is 103 % of control; the T/C (dose: 1.56 mg/kg/injection, schedule: Q04DX003 (ip), vehicle: water) was 95 % of control; the T/C (dose: 3.12 mg/kg/injection, schedule: Q01DX009 (ip), vehicle: water) is 94 % of control; the T/C (dose: 3.12 mg/kg/injection, schedule: Q04DX003 (ip), vehicle: water) is 88 % of control; the T/C (dose: 6.25 mg/kg/injection, schedule: Q01DX009 (ip), vehicle: water) was 97 % of control. Further, the T/C runs as follows: (dose: 6.25 mg/kg/injection, schedule: Q04DX003 (ip), vehicle: water) 106 % of control; (dose: 12.5 mg/kg/injection, schedule: Q01DX009 (ip), vehicle: water) 94 % of control; (dose: 12.5 mg/kg/injection, schedule: Q04DX003 (ip), vehicle: water) 100 % of control; (dose: 25.0 mg/kg/injection, schedule: Q01DX009 (ip), vehicle: water) 97 % of control; (dose: 50.0 mg/kg/injection, schedule: Q01DX009 (ip), vehicle: water) 97 % of control; (dose: 100.0 mg/kg/injection, schedule: Q01DX009 (ip), vehicle: water) 101 % of control. Besides, the T/C (dose: 200.0 mg/kg/injection, schedule: Q01DX009 (ip), vehicle: water) is 91 % of control and the T/C (dose: 400.0 mg/kg/injection, schedule: Q01DX009 (ip), vehicle: water) was 87 % of control.
In the case of `Cc1cc(-c2ccc(NC(=O)c3cccc([N+](=O)[O-])c3)c(C)c2)ccc1NC(=O)c1cccc([N+](=O)[O-])c1`, the T/C is 96 % of control (dose: 50.0 mg/kg/injection, schedule: Q01DX005 (ip), vehicle: saline with Tween-80); 94 % of control (dose: 100.0 mg/kg/injection, schedule: Q01DX005 (ip), vehicle: saline with Tween-80); 105 % of control (dose: 200.0 mg/kg/injection, schedule: Q01DX005 (ip), vehicle: saline with Tween-80).
